Experimental data published in US9861625B2, “Methods and compositions for treating cancer through inhibition of PI3K” (Duke University, priority 2014, dated 2018).
pIC50: −log10 of the molar value.

How the values were obtained:
Format in all cases: cell-based
[1] = tested on: PI3K pathway (p-AKT, p-S6, p-GSKalpha, p-GSKbeta) in BJAB DLBCL cells; assay: Confirmation of pathway downregulation (Western blot) in BJAB; settings: for inhibition of the PI3K pathway: BJAB, time-course and dose-escalation experiments
Protocol: RIPA lysis buffer (1×PBS, 1% NP-40, 0.5% sodium deoxycholate, 0.1% SDS, 10 mmol/L sodium orthovanadate) was added to 750,000 cells and incubate on ice for 30 minutes. The mixture was spun down, and the supernatant was transferred to a new tube as the whole-cell extract. A total of 20 μg cell lysate was separated on a 4% to 18% Tris-Bis NuPAGE gel (Invitrogen) and transferred using the iBlot transfer device (Invitrogen) program 3 for seven minutes. The blots were probed with a 1:100 p-AKT, 1:1000 total AKT, 1:100p-GSK3alpha, 1:100 p-GSK3beta, or 1:100 p-s6 (Cell Signaling), or 1:5000 goat anti-β-actin (SC-47778, Santa Cruz Biotech) for one hour at room temperature. The antibodies were detected by the use of 1:10,000 goat anti-mouse-HRP conjugated antibodies (Santa Cruz Biotech). Western Blotting Luminol Reagent (Santa Cruz Biotech) was used to visualize the bands corresponding to each antibody.
One million BJAB DLBCL cells were treated with increasing doses of BEZ235, and, after six hours, the cells were analyzed for a dose-dependent effect at 15, 30, 60, 125, 250, and 500 nmol/L concentrations. Cell count and viability were measured for each concentration. […] Western blot analyses were performed to assess phosphorylation of AKT, GSK3alpha, GSK3beta, and S6.
Inhibition of the PI3K pathway by the three PI3K inhibitors was confirmed through separate time-course and dose-escalation experiments, as well as by measuring the expression of key downstream members of the pathway. The drugs were tested in the BJAB DLBCL for their effects on p-AKT, p-S6, p-GSKalpha, and p-GSKbeta. […] An associated decrease in cell viability was ruled out by quantifying the proportion of viable cells at each time point using trypan blue staining.

[2] = tested on: Sixty cell lines representing blood cancer histologies; assay: Sensitivity to PI3K inhibition in sixty cancer cell lines (MTT); settings: BKM120 and BEZ235 in all 60 cell lines; BGT226 in 31 cell lines; read-out: observed IC50s, range over the cell lines
Description: (§1) A total of 60 cell lines representative of different cancer types were obtained from the ATCC and grown and maintained in accordance with the provided guidelines. The cell lines represented the following distinct histologies: mantle cell lymphoma (5 lines: JVM13, Rec1, Mino, JVM2, Jeko); germinal center B-cell derived (“GCB”) DLBCL (19 lines: Farage, BJAB, Ly1, Ly2, Ly7, Ly8, Ly19, HBL2, HT, Karpas422, Pfeiffer, RCK8, RL, Sci-1, Ski, SUDHL4, SUDHL7, Toledo, WSU-NHL); primary mediastinal B-cell lymphoma (“PMBL”) (3 lines: K1106, MEDB1, U2940); Burkitt lymphoma (11 lines: Daudi, CA46, EB1, EB2, EB3, Jijoye, Raji, Ramos, Namwala, BL2, BL41); Hodgkin lymphoma (3 lines: RMPI6666, L1236, L428); activated B-cell derived (“ABC”) DLBCL (6 lines: Ly3, HBL1, TMD8, Ly10, Riva, U2932); multiple myeloma (6 lines: U266, SKMM1, RPMI8226, KMS12, IM9, H929); acute myelogenous leukemia (“AML”) (2 lines: U937, KG1); acute lymphoblastic leukemia (“ALL”) (2 lines: Reh, SR); and T-cell lymphoma (3 lines: Molt4, RPMI8402, Jurkat). The cell lines were tested within six months after resuscitation.
The 3-(4,5-dimethylthiazol-2-yl)-2,5-diphenyltetrazolium bromide (MTT) cell viability assay was used to determine cell viability in response to drug treatment. Five replicates per concentration tested were carried out in serial dilutions with a total of ten concentrations with a 50% reduction in drug concentration per dilution for each plate. A total of 15 μl of MTT reagent was added to each drug-treated well and incubated for three hours in 37° C. Detergent was added to each drug-treated well and incubated overnight at room temperature without exposure to light. Absorbance was measured at 570 nm using a plate reader from Tecan Group. The IC50 concentration was determined using the publicly available ED50 plus v1.0 software program. […]

SR = assay: MTT cell viability assay; settings: Homo sapiens, ALL, RPMI 10% FBS
Description: as §1
(§2) The 3-(4,5-dimethylthiazol-2-yl)-2,5-diphenyltetrazolium bromide (MTT) cell viability assay was used to determine cell viability in response to drug treatment. Five replicates per concentration tested were carried out in serial dilutions with a total of ten concentrations with a 50% reduction in drug concentration per dilution for each plate. A total of 15 μl of MTT reagent was added to each drug-treated well and incubated for three hours in 37° C. Detergent was added to each drug-treated well and incubated overnight at room temperature without exposure to light. Absorbance was measured at 570 nm using a plate reader from Tecan Group. The IC50 concentration was determined using the publicly available ED50 plus v1.0 software program.

BL2 = assay: MTT cell viability assay; settings: BL2, Burkitt Lymphoma, RPMI 10% FBS
Description: as §1, §2

LY10 = assay: MTT cell viability assay; settings: LY10, ABC DLBCL, OCI
Description: as §1, §2

Ramos = assay: MTT cell viability assay; settings: Homo sapiens, Burkitt Lymphoma, RPMI 10% FBS
Description: as §1, §2

LY7 = assay: MTT cell viability assay; settings: LY7, GCB DLBCL, OCI
Description: as §1, §2

RL = assay: MTT cell viability assay; settings: Homo sapiens, GCB DLBCL, RPMI 10% FBS
Description: as §1, §2

LY2 = assay: MTT cell viability assay; settings: LY2, GCB DLBCL, OCI
Description: as §1, §2

BL41 = assay: MTT cell viability assay; settings: Homo sapiens, BL-41; BL41, Burkitt Lymphoma, RPMI 10% FBS
Description: as §1, §2

For `Cn1c(=O)n(-c2ccc(C(C)(C)C#N)cc2)c2c3cc(-c4cnc5ccccc5c4)ccc3ncc21` [BEZ235], the “down regulation of PI3K targets, time course” value ([1]; 30 nmol/L BEZ235, three and six hours after treatment, total AKT and actin unchanged) was “time-dependent down regulation”, the “inhibition of the PI3K pathway” value [1] was “directly inhibit the PI3K pathway” and the pIC50 [2] was 5.05 to 8.00. For the same compound, the pIC50 (SR) was 7.19, the pIC50 (BL2) was 7.30 and the pIC50 (LY10) was 5.03. The pIC50 (Ramos) was 7.29, the pIC50 (LY7) was 6.59 and the pIC50 (RL) was 7.59. For the same compound, the pIC50 (LY2) was 7.53 and the pIC50 (BL41) was 7.93.

In the case of `Nc1cc(C(F)(F)F)c(-c2cc(N3CCOCC3)nc(N3CCOCC3)n2)cn1` [BKM120], the “inhibition of the PI3K pathway” value [1] was “directly inhibit the PI3K pathway”, the pIC50 [2] was 5.11 to 6.70 and the pIC50 (SR) was 6.09. The pIC50 (BL2) was 6.14, the pIC50 (LY10) was 5.82 and the pIC50 (Ramos) was 5.98. For the same compound, the pIC50 (LY7) was 5.59, the pIC50 (RL) was 5.59 and the pIC50 (LY2) was 5.65. It also gave a pIC50 (BL41) of 5.30.

`COc1ccc(-c2ccc3ncc4c(c3c2)n(-c2ccc(N3CCNCC3)c(C(F)(F)F)c2)c(=O)n4C)cn1` [BGT226] was tested, and the “inhibition of the PI3K pathway” value [1] was “directly inhibit the PI3K pathway”, the pIC50 [2] was 6.70 to 8.52 and the pIC50 (LY7) was 7.69. The pIC50 (RL) was 7.19.
